Source: patent EP0048186B1, “Cyclopropane-carboxylic-acid derivatives, their preparation, their use in combating vegetal parasites, animals and locations, their compositions, and intermediates” (ROUSSEL-UCLAF, priority 1980, dated 1982)

Experiments:
Assay type in all cases: in vivo
[1] = test system: larves de Spodoptera littoralis; test: Effect on Spodoptera littoralis larvae, topical application; conditions: for activité (conclusion): conclusion in words on the Spodoptera littoralis test; for DL 50 (ng par individu): fourth-instar larvae, topical acetone solution on dorsal thorax, mortality 48 h after treatment
Description: 2°): Etude de l'effet sur larves de Spodoptera littoralis.
Les essais sont effectués par application topique d'une solution acétonique du produit à tester à l'aide du micro manipulateur d'Arnold sur le thorax dorsal des larves. On utilise 15 larves par dose de produit à tester. Les larves utilisées sont des larves du quatrième stade larvaire, c'est-à-dire âgées d'environ 10 jours lorsqu'elles sont élevées à 24°C et 65% d'humidité relative. Après traitement, les individus sont placés sur un milieu nutritif artificiel (milieu de Poitout).
On effectue le contrôle des mortalités 48 heures après traitement.

mouches domestiques = test: Lethal effect on house flies, topical application; conditions: for activité (conclusion): conclusion in words on the lethal test on house flies; for DL 50 (ng par individu): female house flies 4/5 days old, topical 1 µl acetone solution on dorsal thorax, mortality 24 h after treatment
Description: 1°); Etude de l'effet létal sur mouches domestiques.
Les insectes tests sont des mouches domestiques femelles âgées de 4/5 jours. On opère par application topique de 1 ul de solution acétonique du produit sur le thorax dorsal des insectes à l'aide du micro manipulateur d'Arnold. On utilise 50 individus par dose et par traitement. On effectue le contrôle de mortalité vingt-quatre heures après traitement.
Le résultat obtenu exprimé en DL 50 ou dose (en nanogrammes) nécessaire pour tuer 50% des insectes, est le suivant: […]

[2] = test system: blatte germanique (Blatella germanica); test: Tarsal contact activity on German cockroach
Description: 4°): Etude de l'activité par contact tarsal sur blatte germanique. (composé de l'exemple 1J
Les insectes testés sont des mâles de blatte germanique (Blatella germanica). On opère par dépôt d'une solution acétonique de concentration déterminée sur le fond d'une boîte de Petri de 20 cm de diamètre. Après séchage on laisse séjourner 20 mâles de blattes par concentration durant 1 heure puis on transfère les insectes sur milieu sain et on contrôle leur mortalité à 24 h, 48 h, 3 et 5 jours.

mouche domestique = test: Knock-down activity on house fly, direct spray in Kearns and March chamber; conditions: for KT 50 en mn: direct spray, acetone/isopar L; for activité (conclusion): conclusion in words on the knock-down test
Description: 3°): Etude de l'activité de choc sur mouche domestique.
Les insectes tests sont des mouches domestiques femelles âgées de 4/5 jours. On opère par pulvérisation directe en chambre de Kearns et March en utilisant comme solvant un mélange en volumes égaux d'acétone et d'isopar L (quantité de solution utilisée 2 x 0,2 cm3). On utilise environ 50 insectes par dose de traitement. On effectue les contrôles toutes les minutes jusqu'à 10 minutes, puis à 15 minutes et l'on détermine le KT 50 par les méthodes habituelles.

Tétranychus urticae = test: Adulticide test on Tetranychus urticae on bean plants; conditions: dose 2,8 mg/I, sprayed bean plants, checks after 1, 24, 48 and 72 h of contact
Description: 5°): Activité sur Tétranychus urticae. (composé de l'exemple 1)
On utilise des plants de haricot comportant deux feuilles cotylédonaires. Ces plants sont traités au pistolet Fisher avec une solution acétonique du produit. Après séchage 25 femelles de l'acarien Tétranychus urticae sont disposées par feuilles soit 50 individus par dose expérimentée par plant. Les contrôles d'efficacité sont effectués après 1, 24, 48 et 72 heures de contact.

SMILES	activité (conclusion) (mouches domestiques)	DL 50 (ng par individu) (mouches domestiques)	KT 50 en mn (mouche domestique; Concentration 1 g/l)	activité (conclusion) (mouche domestique)	also measured
CC1(C)[C@H](C(=O)O[C@H](C#N)c2cccc(Oc3ccccc3)c2)[C@@H]1/C=C\C(=O)OCC(F)(F)F [Exemple 1, (1 R cis) 2,2-diméthyl 3/(Z) 3-(2,2,2-trifluoroéthoxy) 3-oxo 1-propényl/ cyclopropane carboxylatede (S) a-cyano 3-phénoxy benzyle]	activité remarquable	1,115 ng par individu	3,534 mn	bonne activité	activité (conclusion) [1]: bonne activité; DL 50 (ng par individu) [1]: 4,699 ng par individu; activité (conclusion) ([2]; conclusion in words on the tarsal contact test): très bonne activité; concentration létale 50 (CL 50) ([2]; male cockroaches, 1 h contact with dried deposit in Petri dish, mortality checked at 24 h, 48 h, 3 and 5 days): 0,216 mg/m2; activité (essai adulticide) (Tétranychus urticae): très bonne activité
C=CCC1=C(C)[C@@H](OC(=O)[C@@H]2[C@H](/C=C\C(=O)OCC(F)(F)F)C2(C)C)CC1=O [Exemple 2, (1R cis) 2,2-diméthyl-3-/(Z)-3-oxo-3-(2,2,2-trifluoroéthoxy) 1-propényll cyclopropane carboxylatede (1S) 2-diméthyl-4-oxo-3-(2-propényl) 2-cyclopenten-1-yle]				bonne activité	KT 50 en mn (mouche domestique; Concentration 0,25 g/l): 3,608 mn
CC1(C)[C@H](C(=O)O[C@H](C#N)c2cccc(Oc3ccccc3)c2)[C@@H]1/C=C\C(=O)OC(C(F)(F)F)C(F)(F)F [Exemple 23, (1R cis) 2,2-diméthyl-3-/(Z)-3-oxo 3-(2-(1,1,1,3,3,3-hexafluoro)propoxy) 1-propényl/ cyclopropane carboxylatede (S) a-cyano 3-phénoxy benzyle]	activité remarquable	0,962 ng par individu			
C#CCN1CC(=O)N(COC(=O)[C@@H]2[C@H](/C=C\C(=O)OCC(F)(F)F)C2(C)C)C1=O [Exemple 26, (1R cis) 2,2-diméthyl-3-/(Z)-3-oxo 3-(2,2,2-trifluoro éthoxy) 1-propényl/ cyclopropane carboxylatede (3-propargyl 2,5-dioxoimidazolidinyl) méthyle]				bonne activité	KT 50 en mn (mouche domestique; Concentration 0,25 g/l): 1,550 mn
C#C[C@@H](OC(=O)[C@@H]1[C@H](/C=C\C(=O)OCC(F)(F)F)C1(C)C)c1cccc(Oc2ccccc2)c1 [Exemple 29, (1R cis) 2,2-diméthyl-3-/(Z)-3-oxo 3-(2,2,2-trifluoro éthoxy) 1-propényl/ cyclopropane carboxylatede (R) a-éthynyl 3-phénoxy benzyle]	activité remarquable	0,825 ng par individu			
CC1(C)[C@H](C(=O)OC(C#N)c2cccc(Oc3ccccc3)n2)[C@@H]1/C=C\C(=O)OCC(F)(F)F (stereo partly drawn) [Exemple 30, (1R cis) 2,2-diméthyl-3-/(Z)-3-oxo 3-(2,2,2-trifluoro éthoxy) 1-propényl/ cyclopropane carboxylatede (RS) a-cyano 6-phénoxy 2-pyridyl méthyle]			3,498 mn	bonne activité	
CC1(C)[C@H](C(=O)O[C@H](C#N)c2cccc(Oc3ccccc3)c2)[C@@H]1/C=C\C(=O)OCCF [Exemple 35, (1R cis) 2,2-diméthyl-3-/(Z)-3-oxo 3-(2-fluoroéthoxy) 1-propényl/ cyclopropane carboxylatede (S) a-cyano 3-phénoxy benzyle]			2,894 mn	bonne activité	activité (conclusion) [1]: bonne activité; DL 50 (ng par individu) [1]: 0,544 ng par individu
